Laboratory results published in patent US5770573A, “CS-1 peptidomimetics, compositions and methods of using the same” (Cytel Corporation, priority 1995, dated 1998).
Square brackets hold non-standard residues; d marks the D form. Peptide text beside a SMILES is read from it. * marks the point of attachment. PhAc = O=C(Cc1ccccc1)*

Columns and labels:
[1] = system: rabbit cardiac allograft coronary arteries; assay: Rabbit cardiac allograft model; type: in vivo; as to Expression on Coronary Arteries: ICAM-1: key: -: negative; ±: minimal; +: little; ++: moderately abundant; +++: very abundant; as to Expression on Coronary Arteries: Macrophages: key: -: negative; ±: minimal; +: little; ++: moderately abundant; +++: very abundant; as to Expression on Coronary Arteries: T cells: key: -: negative; ±: minimal; +: little; ++: moderately abundant; +++: very abundant; as to Expression on Coronary Arteries: Total Fibronectin: key: -: negative; ±: minimal; +: little; ++: moderately abundant; +++: very abundant
Text: New Zealand white rabbit SPF hearts were allografted into the necks of similar rabbits to assay a graft-vs-host immunorejection model and the affect of a contemplated compound on that immunoinflammatory response.
Experimental animal model New Zealand white female rabbits (Charles River Lab., Saint Laurent, Quebec), between 3.5 and 4 kg underwent heterotopic cardiac transplant following an experimental protocol previously described [Alonso et al., Am. J. Pathol., 87:415-442 (1977); Clausell et al., Circulation, 89:2768-2779 (1994)]. The animals were unselected to favor an HLA-mismatch, the host rabbits were Pasteurella-free and the donors, outbred animals. Both host and donor rabbits were fed Purina 5321-0.5 percent cholesterol diet (Research Diets Inc., New Brunswick, N.J.), a strategy that has proven useful in accelerating the process of allograft arteriopathy [Alonso et al., Am. J. Pathol., 87:415-442 (1977)]. The diet was commenced four days prior to the transplant and continued in the recipient of the transplant until the completion of the experimental period.
The technique of heterotopic cardiac transplantation has been previously described [Clausell et al., Circulation, 89:2768-2779 (1994)]. Briefly, a vertical incision was performed in the anterior aspect of the neck of the recipient rabbit and the left common carotid artery and the ipsilateral external jugular vein were isolated. The cardiac allograft was placed in the neck by anastomosing the aorta end-to-side to the recipient's carotid artery and the pulmonary end-to-side to the recipient's external jugular vein, following a total period of ischemia for the donor hearts of approximately 30 minutes. Postoperative care was in compliance with the Principles of Laboratory Animal Care formulated by the Canadian National Society for Medical Research.
Beginning the day of the transplant, the animals were randomized and treated with either scrambled compound (control group) at 1 mg/kg s.c. or the inhibitor compound at 1 mg/kg s.c. The doses of the compounds were empirically extrapolated to the in vivo model based on preliminary in vitro studies, of Table 1. No other immunosuppression therapy was administered. The grafts were monitored daily by palpation and maintained for 7 to 8 days, a previously described endpoint that was associated with myocardial rejection (impaired cardiac contractility) and development of the allograft arteriopathy in this model [Clausell et al., Circulation, 89:2768-2779 (1994)]. A total of fourteen animals were studied in the control (n=7) and treated (n=7) groups.
Preparation of the hearts The animals were sacrificed using a lethal dose of euthanol (480 mg i.v.) (MTC Pharmaceutical, Cambridge, Oreg.), host and donor hearts were removed, and the coronary arteries were perfused with saline through the aorta, followed by light fixation by perfusion with 2 percent paraformaldehyde (Sigma, St, Louis, Mo.). […] Different sections of the hearts were either saved in 10 percent formalin (BDH Inc., Toronto, ON) for light microscopy studies or immediately frozen in O.T.C. Compound Tissue Tek (Miles Inc., Elkart, In.) for specific immunohistochemistry studies.
Three different paraffin-embedded tissue sections from host and donor hearts from both control and treated rabbits were stained by the Movat pentachrome method for light microscopy. Morphometric analysis was performed using a Zeiss microscope attached to a computer-generated video analysis system (Perceptics Inc., NuVision software), as described in Clausell et al., Circulation, 89:2768-2779 (1994). The number of vessels with intimal lesions were counted in all three heart sections from each animal studied and are expressed as a percentage of the total vessel number.
In the host hearts, 999 vessels in the control group and 1054 vessels in the treated group were analyzed. In the donor hearts, 827 vessels in the control group and 617 vessels in the treated group were analyzed. […]

[2] = Loss of potency in PBS containing 10 percent mouse or human serum; conditions: PBS at 7.2-7.4 with 10 percent mouse or human serum; 24 hours

CC(C)C[C@H](NC(=O)Cc1ccccc1)C(=O)N[C@@H](CC(=O)O)C(=O)N[C@@H](Cc1ccccc1)C(=O)N1CCC[C@@H]1C(N)=O [Compound ID No. 896.52, N-phenylacetyl-Leu-Asp-Phe-D-Pro-NH2] (PhAc-LDF[dP]-NH2)
Expression on Coronary Arteries: ICAM-1 ([1]; 1 mg/kg s.c., 7 to 8 days): ±
Expression on Coronary Arteries: Macrophages ([1]; 1 mg/kg s.c., 7 to 8 days): ±
Expression on Coronary Arteries: T cells ([1]; 1 mg/kg s.c., 7 to 8 days): ±
Expression on Coronary Arteries: Total Fibronectin ([1]; 1 mg/kg s.c., 7 to 8 days): ±
Expression on Coronary Arteries: VCAM-1 ([1]; 1 mg/kg s.c., 7 to 8 days): ±
Expression on Coronary Arteries: MHC Class II ([1]; 1 mg/kg s.c., 7 to 8 days, immunoperoxidase score): ±
Vessel Intimal Thickening: Percent of Vessels ([1]; donor hearts, 1 mg/kg s.c.): 35%
Vessel Intimal Thickening: Severity (Percent of Vessel area) ([1]; donor hearts, 1 mg/kg s.c.): 16%
Baseline (rabbit own host heart) of incidence ([1]; host heart): 12%
Baseline (rabbit own host heart) of severity ([1]; host heart): 12%
loss of potency in serum [2]: no loss of potency
